Literature values, collected in patent US5173304A, “Agents for the treatment of severe pain and preparation of said agents” (Dolorgiet Beteiligungs GmbH, priority 1989, dated 1992).

Settings: in vivo

SMILES: CC(C)Cc1ccc(C(C)C(=O)O)cc1 (centres unmarked) [ibuprofen]
- Analgesic effectiveness: effective analgesic
- Tolerability: well tolerated
